Data published in US12157741B2, “Macrocyclic inhibitors of DYRK1A” (DANA-FARBER CANCER INSTITUTE, INC., priority 2018, dated 2024).
Read-outs that look alike come from different tables or passages of the source.

Experiments:
Type in all cases: binding
various enzymes [1] = target: various enzymes (Homo sapiens, UniProt P54760); details: compound 1 uM
Experimental: (§1) Ambit profiling was conducted in accordance with the manufacturer's instructions.

various enzymes [2] = target: various enzymes (Homo sapiens, UniProt P00533, DEL746-750); details: compound 1 uM
Experimental: as §1

various enzymes [3] = target: various enzymes (Homo sapiens, UniProt P51813); details: compound 1 uM
Experimental: as §1

various enzymes [4] = target: various enzymes (Homo sapiens, UniProt Q9Y463); details: compound 1 uM
Experimental: as §1

various enzymes [5] = target: various enzymes (Homo sapiens, UniProt P09619); details: compound 1 uM
Experimental: as §1

various enzymes [6] = target: various enzymes (Homo sapiens, UniProt O00444); details: compound 1 uM
Experimental: as §1

various enzymes [7] = target: various enzymes (Homo sapiens, UniProt Q9BRS2); details: compound 1 uM
Experimental: as §1

various enzymes [8] = target: various enzymes (Homo sapiens, UniProt P43403); details: compound 1 uM
Experimental: as §1

various enzymes [9] = target: various enzymes (Homo sapiens, UniProt Q05655); details: compound 1 uM
Experimental: as §1

various enzymes [10] = target: various enzymes (Homo sapiens, UniProt Q16620); details: compound 1 uM
Experimental: as §1

various enzymes [11] = target: various enzymes (Homo sapiens, UniProt Q86Z02); details: compound 1 uM
Experimental: as §1

various enzymes [12] = target: various enzymes (Homo sapiens, UniProt P17948); details: compound 1 uM
Experimental: as §1

various enzymes [13] = target: various enzymes (Homo sapiens, UniProt P31152); details: compound 1 uM
Experimental: as §1

various enzymes [14] = target: various enzymes (Homo sapiens, UniProt P00519, F317I); details: compound 1 uM
Experimental: as §1

various enzymes [15] = target: various enzymes (Homo sapiens, UniProt O00506); details: compound 1 uM
Experimental: as §1

various enzymes [16] = target: various enzymes (Homo sapiens, UniProt Q9UEW8); details: compound 1 uM
Experimental: as §1

various enzymes [17] = target: various enzymes (Homo sapiens, UniProt P42336, I800L)
Experimental: as §1

various enzymes [18] = target: various enzymes (Homo sapiens, UniProt Q6P3R8); details: compound 1 uM
Experimental: as §1

various enzymes [19] = target: various enzymes (Homo sapiens, UniProt Q04771); details: compound 1 uM
Experimental: as §1

various enzymes [20] = target: various enzymes (Homo sapiens, UniProt P53355); details: compound 1 uM
Experimental: as §1

various enzymes [21] = target: various enzymes (Homo sapiens, UniProt Q8NE63); details: compound 1 uM
Experimental: as §1

various enzymes [22] = target: various enzymes (Homo sapiens, UniProt Q12866); details: compound 1 uM
Experimental: as §1

various enzymes [23] = target: various enzymes (Homo sapiens, UniProt P15735); details: compound 1 uM
Experimental: as §1

various enzymes [24] = target: various enzymes (Homo sapiens, UniProt Q8NEB9); details: compound 1 uM
Experimental: as §1

various enzymes [25] = target: various enzymes (Homo sapiens, UniProt P21709); details: compound 1 uM
Experimental: as §1

various enzymes [26] = target: various enzymes (Homo sapiens, UniProt Q16513); details: compound 1 uM
Experimental: as §1

various enzymes [27] = target: various enzymes (Homo sapiens, UniProt Q9P0L2); details: compound 1 uM
Experimental: as §1

various enzymes [28] = target: various enzymes (Homo sapiens, UniProt O75116); details: compound 1 uM
Experimental: as §1

various enzymes [29] = target: various enzymes (Homo sapiens, UniProt Q8N568); details: compound 1 uM
Experimental: as §1

various enzymes [30] = target: various enzymes (Homo sapiens, UniProt P54756); details: compound 1 uM
Experimental: as §1

various enzymes [31] = target: various enzymes (Homo sapiens, UniProt Q15831); details: compound 1 uM
Experimental: as §1

various enzymes [32] = target: various enzymes (Homo sapiens, UniProt Q9UF33); details: compound 1 uM
Experimental: as §1

various enzymes [33] = target: various enzymes (Homo sapiens, UniProt Q9Y5S2); details: compound 1 uM
Experimental: as §1

various enzymes [34] = target: various enzymes (Homo sapiens, UniProt O60674); details: compound 1 uM
Experimental: as §1

various enzymes [35] = target: various enzymes (Homo sapiens, UniProt Q9HAZ1); details: compound 1 uM
Experimental: as §1

Chain of various enzymes (Homo sapiens, UniProt P00519, F317I) (P00519 whole entry F317I): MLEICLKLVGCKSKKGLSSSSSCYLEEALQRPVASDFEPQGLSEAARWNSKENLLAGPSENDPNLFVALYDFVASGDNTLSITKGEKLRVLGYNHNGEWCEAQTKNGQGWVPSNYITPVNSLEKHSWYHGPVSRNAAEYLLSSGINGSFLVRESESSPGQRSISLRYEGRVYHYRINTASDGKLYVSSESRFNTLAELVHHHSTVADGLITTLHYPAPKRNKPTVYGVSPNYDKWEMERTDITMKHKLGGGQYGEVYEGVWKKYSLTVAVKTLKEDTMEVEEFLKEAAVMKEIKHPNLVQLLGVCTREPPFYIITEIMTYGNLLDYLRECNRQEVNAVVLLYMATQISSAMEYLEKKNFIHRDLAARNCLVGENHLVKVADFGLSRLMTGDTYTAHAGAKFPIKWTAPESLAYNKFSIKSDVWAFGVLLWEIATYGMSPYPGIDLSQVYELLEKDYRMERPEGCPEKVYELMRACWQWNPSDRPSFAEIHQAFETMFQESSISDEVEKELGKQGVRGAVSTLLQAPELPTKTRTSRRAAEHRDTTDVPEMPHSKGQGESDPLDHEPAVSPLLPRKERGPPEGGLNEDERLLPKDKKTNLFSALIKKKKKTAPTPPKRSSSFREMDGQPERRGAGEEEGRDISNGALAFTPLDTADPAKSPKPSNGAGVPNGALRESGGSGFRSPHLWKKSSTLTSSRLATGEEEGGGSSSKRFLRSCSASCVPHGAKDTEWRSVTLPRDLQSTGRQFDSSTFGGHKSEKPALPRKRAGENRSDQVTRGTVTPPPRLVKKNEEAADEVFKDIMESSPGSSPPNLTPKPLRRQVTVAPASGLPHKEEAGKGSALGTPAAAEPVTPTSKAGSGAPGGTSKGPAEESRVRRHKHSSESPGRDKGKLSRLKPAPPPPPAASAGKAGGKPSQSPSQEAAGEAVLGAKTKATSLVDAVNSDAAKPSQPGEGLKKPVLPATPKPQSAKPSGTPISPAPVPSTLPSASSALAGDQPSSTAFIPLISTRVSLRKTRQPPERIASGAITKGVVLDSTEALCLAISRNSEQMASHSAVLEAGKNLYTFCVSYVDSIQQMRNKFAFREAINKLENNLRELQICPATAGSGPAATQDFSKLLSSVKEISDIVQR
Chain of various enzymes (Homo sapiens, UniProt Q86Z02) (Q86Z02 whole entry): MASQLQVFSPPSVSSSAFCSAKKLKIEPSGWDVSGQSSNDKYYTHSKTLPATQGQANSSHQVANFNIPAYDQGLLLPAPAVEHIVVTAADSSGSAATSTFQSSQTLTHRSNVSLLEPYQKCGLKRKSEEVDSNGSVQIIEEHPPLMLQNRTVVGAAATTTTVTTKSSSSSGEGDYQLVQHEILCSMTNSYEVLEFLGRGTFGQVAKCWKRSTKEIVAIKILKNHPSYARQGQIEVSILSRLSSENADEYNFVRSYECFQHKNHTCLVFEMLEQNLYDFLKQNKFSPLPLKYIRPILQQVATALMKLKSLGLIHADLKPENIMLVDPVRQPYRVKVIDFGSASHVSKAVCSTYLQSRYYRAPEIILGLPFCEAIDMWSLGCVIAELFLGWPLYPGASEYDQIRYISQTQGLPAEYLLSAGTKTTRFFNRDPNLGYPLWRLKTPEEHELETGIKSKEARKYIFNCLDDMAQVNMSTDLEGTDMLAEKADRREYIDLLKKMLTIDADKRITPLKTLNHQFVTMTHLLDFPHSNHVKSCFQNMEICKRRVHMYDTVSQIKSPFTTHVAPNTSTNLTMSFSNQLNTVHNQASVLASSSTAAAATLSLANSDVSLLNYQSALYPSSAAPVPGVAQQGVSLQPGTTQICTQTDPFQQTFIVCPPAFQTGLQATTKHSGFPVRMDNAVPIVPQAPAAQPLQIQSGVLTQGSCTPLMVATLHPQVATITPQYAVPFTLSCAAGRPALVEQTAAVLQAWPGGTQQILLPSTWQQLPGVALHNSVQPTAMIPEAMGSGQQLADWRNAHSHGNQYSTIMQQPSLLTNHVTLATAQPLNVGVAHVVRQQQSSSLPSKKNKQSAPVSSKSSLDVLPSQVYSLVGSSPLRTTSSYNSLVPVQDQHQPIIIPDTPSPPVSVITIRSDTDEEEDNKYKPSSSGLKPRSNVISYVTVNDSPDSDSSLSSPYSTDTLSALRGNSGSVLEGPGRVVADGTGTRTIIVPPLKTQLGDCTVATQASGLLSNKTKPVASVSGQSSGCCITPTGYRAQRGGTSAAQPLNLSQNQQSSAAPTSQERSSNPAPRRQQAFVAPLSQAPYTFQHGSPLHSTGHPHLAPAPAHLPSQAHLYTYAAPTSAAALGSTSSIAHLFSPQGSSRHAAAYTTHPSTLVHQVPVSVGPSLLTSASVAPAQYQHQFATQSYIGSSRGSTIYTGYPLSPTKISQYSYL
Chain of various enzymes (Homo sapiens, UniProt P54756) (P54756 25-1037): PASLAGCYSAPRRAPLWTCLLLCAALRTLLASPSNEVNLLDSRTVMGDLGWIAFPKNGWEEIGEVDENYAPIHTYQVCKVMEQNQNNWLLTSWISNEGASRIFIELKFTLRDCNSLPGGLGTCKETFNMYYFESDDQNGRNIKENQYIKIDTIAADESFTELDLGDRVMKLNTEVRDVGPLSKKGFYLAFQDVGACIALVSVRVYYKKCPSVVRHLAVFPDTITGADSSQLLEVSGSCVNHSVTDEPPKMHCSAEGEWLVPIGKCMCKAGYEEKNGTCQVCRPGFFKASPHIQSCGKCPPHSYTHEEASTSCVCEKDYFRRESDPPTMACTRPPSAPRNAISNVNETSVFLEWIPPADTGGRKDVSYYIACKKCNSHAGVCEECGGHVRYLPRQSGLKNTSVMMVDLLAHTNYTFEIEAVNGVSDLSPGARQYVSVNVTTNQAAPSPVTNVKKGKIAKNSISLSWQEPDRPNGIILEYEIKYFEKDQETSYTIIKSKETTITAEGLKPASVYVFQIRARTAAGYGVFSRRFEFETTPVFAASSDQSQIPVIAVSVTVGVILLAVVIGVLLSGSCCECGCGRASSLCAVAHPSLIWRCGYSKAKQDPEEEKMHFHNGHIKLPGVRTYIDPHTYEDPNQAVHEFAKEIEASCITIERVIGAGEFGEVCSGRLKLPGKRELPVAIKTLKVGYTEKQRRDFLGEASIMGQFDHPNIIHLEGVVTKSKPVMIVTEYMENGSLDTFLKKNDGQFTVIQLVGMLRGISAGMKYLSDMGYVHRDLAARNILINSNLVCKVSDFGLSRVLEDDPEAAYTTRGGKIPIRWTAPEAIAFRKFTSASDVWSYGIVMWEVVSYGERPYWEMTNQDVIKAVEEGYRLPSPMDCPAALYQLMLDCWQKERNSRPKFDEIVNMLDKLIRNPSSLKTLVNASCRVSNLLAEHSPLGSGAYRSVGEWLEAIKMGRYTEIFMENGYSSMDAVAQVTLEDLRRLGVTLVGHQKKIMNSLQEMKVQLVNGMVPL
Chain of various enzymes (Homo sapiens, UniProt P21709) (P21709 26-976): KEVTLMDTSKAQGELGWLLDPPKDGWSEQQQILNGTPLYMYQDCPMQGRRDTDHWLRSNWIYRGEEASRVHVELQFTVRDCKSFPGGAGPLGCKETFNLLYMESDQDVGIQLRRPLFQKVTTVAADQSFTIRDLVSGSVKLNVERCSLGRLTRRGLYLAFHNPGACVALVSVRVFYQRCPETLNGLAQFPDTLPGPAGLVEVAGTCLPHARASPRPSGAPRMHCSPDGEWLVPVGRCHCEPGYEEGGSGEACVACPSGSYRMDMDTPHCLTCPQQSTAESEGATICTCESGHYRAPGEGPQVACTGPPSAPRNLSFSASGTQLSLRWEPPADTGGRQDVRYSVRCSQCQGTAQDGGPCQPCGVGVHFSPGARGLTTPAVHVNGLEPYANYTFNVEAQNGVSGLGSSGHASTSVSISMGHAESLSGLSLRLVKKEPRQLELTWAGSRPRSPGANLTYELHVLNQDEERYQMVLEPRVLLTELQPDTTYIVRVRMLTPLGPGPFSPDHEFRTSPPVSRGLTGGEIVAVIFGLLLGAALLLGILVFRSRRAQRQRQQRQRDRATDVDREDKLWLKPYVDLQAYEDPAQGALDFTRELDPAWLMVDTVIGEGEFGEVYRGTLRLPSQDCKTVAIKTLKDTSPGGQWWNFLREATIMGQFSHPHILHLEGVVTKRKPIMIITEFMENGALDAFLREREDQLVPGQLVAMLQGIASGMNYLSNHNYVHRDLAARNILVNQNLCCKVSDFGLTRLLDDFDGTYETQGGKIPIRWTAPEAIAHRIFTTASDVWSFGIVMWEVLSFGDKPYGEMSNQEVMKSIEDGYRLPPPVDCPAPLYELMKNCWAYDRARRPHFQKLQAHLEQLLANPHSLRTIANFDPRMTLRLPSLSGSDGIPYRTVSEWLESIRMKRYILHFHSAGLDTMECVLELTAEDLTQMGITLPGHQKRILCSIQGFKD
Chain of various enzymes (Homo sapiens, UniProt Q9HAZ1) (Q9HAZ1 whole entry): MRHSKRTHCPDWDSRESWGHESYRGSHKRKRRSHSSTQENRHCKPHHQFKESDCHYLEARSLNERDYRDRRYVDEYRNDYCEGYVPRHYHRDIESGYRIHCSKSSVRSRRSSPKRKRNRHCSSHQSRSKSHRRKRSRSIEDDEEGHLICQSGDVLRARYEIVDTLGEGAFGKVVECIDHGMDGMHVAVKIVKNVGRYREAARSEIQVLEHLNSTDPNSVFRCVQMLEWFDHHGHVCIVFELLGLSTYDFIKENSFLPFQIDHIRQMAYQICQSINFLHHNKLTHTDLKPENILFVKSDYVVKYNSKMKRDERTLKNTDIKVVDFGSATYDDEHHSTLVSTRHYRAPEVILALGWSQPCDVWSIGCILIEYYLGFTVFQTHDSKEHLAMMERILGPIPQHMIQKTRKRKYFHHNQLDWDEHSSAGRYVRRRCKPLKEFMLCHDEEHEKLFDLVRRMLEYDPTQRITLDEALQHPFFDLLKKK

SMILES	Ambit profiling: EPHB4 (various enzymes [1])	Ambit profiling: EGFR(E746-A750del) (various enzymes [2])	Ambit profiling: BMX (various enzymes [3])	Ambit profiling: PDGFRB (various enzymes [5])	Ambit profiling: PLK4 (various enzymes [6])	Ambit profiling: ZAP70 (various enzymes [8])	Ambit profiling: PRKCD (various enzymes [9])	Ambit profiling: TRKB (various enzymes [10])	Ambit profiling: HIPK1 (various enzymes [11])	Ambit profiling: FLT1 (various enzymes [12])	Ambit profiling: ERK4 (various enzymes [13])	Ambit profiling: ABL1(F317I)-nonphosphorylated (various enzymes [14])	Ambit profiling: ABL1(F317I)-phosphorylated (various enzymes [14])	Ambit profiling: YSK1 (various enzymes [15])	Ambit profiling: STK39 (various enzymes [16])	Ambit profiling: NEK5 (various enzymes [18])	Ambit profiling: ACVR1 (various enzymes [19])	Ambit profiling: DAPK1 (various enzymes [20])	Ambit profiling: HIPK4 (various enzymes [21])	Ambit profiling: MERTK (various enzymes [22])	further results
CC(C)N1Cc2nn(C)cc2-c2cnc3[nH]cc(c3c2)-c2cn(nc2C(F)(F)F)CCCC1=O [Compound 45, (Z)-5-isopropyl-31-methyl-13-(trifluoromethyl)-11H,21H,31H-5-aza-2(3,5)-pyrrolo[2,3-b]pyridina-1(4,1),3(4,3)-dipyrazolacyclononaphan-6-one]	76	6.4	35	0.1	29	83	71	0.25	6.5	5.4	100	87	71	38	98	100	18	92	2.1	0.6	Ambit profiling: DYRK18 (various enzymes [4]): 0.55; Ambit profiling: RICK1 (various enzymes [7]): 1.4; Ambit profiling: PIK3CA(I800L) (various enzymes [17]; compound 1 uM): 87; Ambit profiling: PHKG2 (various enzymes [23]): 44; Ambit profiling: VPS34 (various enzymes [24]): 100; Ambit profiling: EPHA1 (various enzymes [25]): 26; Ambit profiling: PKN2 (various enzymes [26]): 100; Ambit profiling: MARK1 (various enzymes [27]): 33; Ambit profiling: ROCK2 (various enzymes [28]): 100; Ambit profiling: DCAMKL2 (various enzymes [29]): 100; Ambit profiling: EPHA5 (various enzymes [30]): 92; Ambit profiling: LKB1 (various enzymes [31]): 100; Ambit profiling: EPHA6 (various enzymes [32]): 18; Ambit profiling: MRCKB (various enzymes [33]): 86; Ambit profiling: JAK2(JH1domain-catalytic) (various enzymes [34]): 4.9; Ambit profiling: CLK4 (various enzymes [35]): 19
COc1c2c(nn1C)CN(C(C)C)C(=O)CCCn1cc(c(C(F)(F)F)n1)-c1c[nH]c3ncc-2cc13 [Compound 50, (Z)-5-isopropyl-35-methoxy-31-methyl-13-(trifluoromethyl)-11H,21H,31H-5-aza-2(3,5)-pyrrolo[2,3-b]pyridina-1(4,1),3(4,3)-dipyrazolacyclononaphan-6-one]	40	5.9	24	0	10	100	43	0	13	5.9	82	56	19	25	100	64	14	65	1.5	3.5	Ambit profiling: DYRK1B (various enzymes [4]): 5.2; Ambit profiling: RIOK1 (various enzymes [7]): 16; Ambit profiling: PIK3CA(I800L) (various enzymes [17]): 86; Ambit profiling: PHKG2 (various enzymes [23]): 53; Ambit profiling: VPS34 (various enzymes [24]): 83; Ambit profiling: EPHA1 (various enzymes [25]): 29; Ambit profiling: PKN2 (various enzymes [26]): 100; Ambit profiling: MARK1 (various enzymes [27]): 39; Ambit profiling: ROCK2 (various enzymes [28]): 67; Ambit profiling: DCAMKL2 (various enzymes [29]): 90; Ambit profiling: EPHA5 (various enzymes [30]): 67; Ambit profiling: LKB1 (various enzymes [31]): 33; Ambit profiling: EPHA6 (various enzymes [32]): 14; Ambit profiling: MRCKB (various enzymes [33]): 99; Ambit profiling: JAK2(JH1domain-catalytic) (various enzymes [34]): 29; Ambit profiling: CLK4 (various enzymes [35]): 17
